Entries after “also recorded” stand apart in the source; their conditions may differ.

One assay addresses LRP (Homo sapiens, UniProt Q07954). Kind of assay: ELISA of LRP binding to APPs770 captured on zinc-coated wells. The conditions noted are these: LRP 25 nM, RAP 0.2-450 nM. On the procedure: In panel A, zinc-coated wells (∘) or zinc-coated wells incubated with APPs770 (●) were incubated with the APPs770 monoclonal antibody 7H5. In panel B, increasing concentrations of LRP (0.14-300 nM) were incubated for 18 h at 4° C. with zinc-coated wells (∘) or zinc-coated wells with captured APPs770 (●). Panel C, LRP (25 nM) was incubated with zinc-coated wells (∘) or zinc-coated wells with captured APPs770 (●) in the presence of increasing concentrations of RAP (0.2-450 nM). Bound receptor was detected with the monoclonal LRP antibody 8G1. In the absence of LRP there was no binding of 8G1 IgG to APPs770-coated wells. Plotted values represent means of duplicate determinations.
A general note: ELISA stands for enzyme-linked immunosorbent assay.

Assay [1] concerns LRP-expressing (MEF) cells. The assay can be described thus: Cellular internalization and degradation of 125I-labeled ligands by LRP-expressing mouse fibroblasts. Format: cell-based. The protocol: (§1) Wells containing 2×10^5 LRP-expressing (MEF) or LRP-deficient (PEA13) cells were incubated with various concentrations (0.37-10 nM) of ^125I-APPs770 (Panels A and B) or 125I-APPs695 (Panels C and D) for 10 h at 37° C. in the absence of competitor (●) or in the presence of either 1 μM RAP (∘), or 100 μg/ml heparin (□). The cellular degradation of ^125I-labeled APPs770 by LRP-expressing MEF cells is shown in panel A and by LRP-deficient PEA13 cells in panel B. The cellular degradation of ^125I-APPs695 by LRP-expressing cells is depicted in panel C and by LRP-deficient cells in panel D. Plotted values represent means of duplicate determinations. Inset to panel B, autoradiogram of ^125I-labeled APPs770 (lane 1) and APPs695 (lane 2). The migration position of molecular mass standards are indicated on the right in kDa.
Wells containing 2×10^5 LRP-expressing (●) or LRP-deficient (∘) mouse fibroblasts were incubated with ^125I-LDL (8 μg/ml) or ^125I-α2M* (1.4 nM) for selected time intervals. […] Shown are the amounts of ^125I-LDL internalized (panel A) and degraded (panel B), ^125I-α2M* internalized (panel C) and degraded (panel D). The plotted values represent means of duplicate determinations.
Mouse fibroblasts (2×10^5 cells per well) were incubated for selected times with ^125I-APPs770 (1 nM) in the absence of competitor (●) or in the presence of either 1 μM RAP (∘), or 100 μg/ml heparin (□). The amount of radioactivity internalized and degraded was determined at the indicated time intervals. […] The plotted values are means of duplicate determinations.
Mouse fibroblasts (2×10^5 cells/well) were incubated for 18 h at 37° C. with ^125I-APPs770 (10 nM) in the absence of competitor or in the presence of either heparin (100 μg/ml), chloroquine (0.1 mM), RAP (1 μM), affinity purified anti-LRP IgG (100 μg/ml), or control IgG against the cytoplasmic domain of LRP (100 μg/ml). Panels show the amount of ^125I-APPs770 degraded by mouse fibroblasts expressing LRP (A) or ones deficient in LRP expression (B). The data shown are means of duplicate determinations±S. E.
Wells containing 2×10^5 LRP-expressing (MEF) or LRP-deficient (PEA13) cells were incubated with ^125I-APPs770 (5 nM) or ^125I-APPs770:FIXa (3 nM) for 18 h at 37° C. in the absence of competitor or in the presence of 1 μM RAP. The amount of ^125I-labeled APPs770 or ^125I-APPs770:Factor IXa degraded by LRP-expressing MEF cells is shown in panel A and that by LRP-deficient PEA13 cells in panel B. Plotted values represent means of duplicate determinations.
Mouse fibroblasts (2×10^5) were incubated for 18 h at 37° C. with ^125I-APP/PN-2 (8.8 nM) in the absence of competitor or in the presence of either RAP (1 μM)), 10 μg/ml apoE3/βVLDL, 10 μg/ml apoE4/βVLDL, or 10 μg/ml βVLDL. […]

Assay [2] has as its system LRP-deficient (PEA13) cells. Kind of assay: Cellular internalization and degradation of 125I-labeled ligands by LRP-deficient mouse fibroblasts. Format: cell-based. On the procedure:
as §1
Wells containing 2×10^5 LRP-expressing (●) or LRP-deficient (∘) mouse fibroblasts were incubated with ^125I-LDL (8 μg/ml) or ^125I-α2M* (1.4 nM) for selected time intervals. […]
Mouse fibroblasts (2×10^5 cells per well) were incubated for selected times with ^125I-APPs770 (1 nM) in the absence of competitor (●) or in the presence of either 1 μM RAP (∘), or 100 μg/ml heparin (□). The amount of radioactivity internalized and degraded was determined at the indicated time intervals. […]

Chain of LRP (Q07954 20-3943 limits assumed): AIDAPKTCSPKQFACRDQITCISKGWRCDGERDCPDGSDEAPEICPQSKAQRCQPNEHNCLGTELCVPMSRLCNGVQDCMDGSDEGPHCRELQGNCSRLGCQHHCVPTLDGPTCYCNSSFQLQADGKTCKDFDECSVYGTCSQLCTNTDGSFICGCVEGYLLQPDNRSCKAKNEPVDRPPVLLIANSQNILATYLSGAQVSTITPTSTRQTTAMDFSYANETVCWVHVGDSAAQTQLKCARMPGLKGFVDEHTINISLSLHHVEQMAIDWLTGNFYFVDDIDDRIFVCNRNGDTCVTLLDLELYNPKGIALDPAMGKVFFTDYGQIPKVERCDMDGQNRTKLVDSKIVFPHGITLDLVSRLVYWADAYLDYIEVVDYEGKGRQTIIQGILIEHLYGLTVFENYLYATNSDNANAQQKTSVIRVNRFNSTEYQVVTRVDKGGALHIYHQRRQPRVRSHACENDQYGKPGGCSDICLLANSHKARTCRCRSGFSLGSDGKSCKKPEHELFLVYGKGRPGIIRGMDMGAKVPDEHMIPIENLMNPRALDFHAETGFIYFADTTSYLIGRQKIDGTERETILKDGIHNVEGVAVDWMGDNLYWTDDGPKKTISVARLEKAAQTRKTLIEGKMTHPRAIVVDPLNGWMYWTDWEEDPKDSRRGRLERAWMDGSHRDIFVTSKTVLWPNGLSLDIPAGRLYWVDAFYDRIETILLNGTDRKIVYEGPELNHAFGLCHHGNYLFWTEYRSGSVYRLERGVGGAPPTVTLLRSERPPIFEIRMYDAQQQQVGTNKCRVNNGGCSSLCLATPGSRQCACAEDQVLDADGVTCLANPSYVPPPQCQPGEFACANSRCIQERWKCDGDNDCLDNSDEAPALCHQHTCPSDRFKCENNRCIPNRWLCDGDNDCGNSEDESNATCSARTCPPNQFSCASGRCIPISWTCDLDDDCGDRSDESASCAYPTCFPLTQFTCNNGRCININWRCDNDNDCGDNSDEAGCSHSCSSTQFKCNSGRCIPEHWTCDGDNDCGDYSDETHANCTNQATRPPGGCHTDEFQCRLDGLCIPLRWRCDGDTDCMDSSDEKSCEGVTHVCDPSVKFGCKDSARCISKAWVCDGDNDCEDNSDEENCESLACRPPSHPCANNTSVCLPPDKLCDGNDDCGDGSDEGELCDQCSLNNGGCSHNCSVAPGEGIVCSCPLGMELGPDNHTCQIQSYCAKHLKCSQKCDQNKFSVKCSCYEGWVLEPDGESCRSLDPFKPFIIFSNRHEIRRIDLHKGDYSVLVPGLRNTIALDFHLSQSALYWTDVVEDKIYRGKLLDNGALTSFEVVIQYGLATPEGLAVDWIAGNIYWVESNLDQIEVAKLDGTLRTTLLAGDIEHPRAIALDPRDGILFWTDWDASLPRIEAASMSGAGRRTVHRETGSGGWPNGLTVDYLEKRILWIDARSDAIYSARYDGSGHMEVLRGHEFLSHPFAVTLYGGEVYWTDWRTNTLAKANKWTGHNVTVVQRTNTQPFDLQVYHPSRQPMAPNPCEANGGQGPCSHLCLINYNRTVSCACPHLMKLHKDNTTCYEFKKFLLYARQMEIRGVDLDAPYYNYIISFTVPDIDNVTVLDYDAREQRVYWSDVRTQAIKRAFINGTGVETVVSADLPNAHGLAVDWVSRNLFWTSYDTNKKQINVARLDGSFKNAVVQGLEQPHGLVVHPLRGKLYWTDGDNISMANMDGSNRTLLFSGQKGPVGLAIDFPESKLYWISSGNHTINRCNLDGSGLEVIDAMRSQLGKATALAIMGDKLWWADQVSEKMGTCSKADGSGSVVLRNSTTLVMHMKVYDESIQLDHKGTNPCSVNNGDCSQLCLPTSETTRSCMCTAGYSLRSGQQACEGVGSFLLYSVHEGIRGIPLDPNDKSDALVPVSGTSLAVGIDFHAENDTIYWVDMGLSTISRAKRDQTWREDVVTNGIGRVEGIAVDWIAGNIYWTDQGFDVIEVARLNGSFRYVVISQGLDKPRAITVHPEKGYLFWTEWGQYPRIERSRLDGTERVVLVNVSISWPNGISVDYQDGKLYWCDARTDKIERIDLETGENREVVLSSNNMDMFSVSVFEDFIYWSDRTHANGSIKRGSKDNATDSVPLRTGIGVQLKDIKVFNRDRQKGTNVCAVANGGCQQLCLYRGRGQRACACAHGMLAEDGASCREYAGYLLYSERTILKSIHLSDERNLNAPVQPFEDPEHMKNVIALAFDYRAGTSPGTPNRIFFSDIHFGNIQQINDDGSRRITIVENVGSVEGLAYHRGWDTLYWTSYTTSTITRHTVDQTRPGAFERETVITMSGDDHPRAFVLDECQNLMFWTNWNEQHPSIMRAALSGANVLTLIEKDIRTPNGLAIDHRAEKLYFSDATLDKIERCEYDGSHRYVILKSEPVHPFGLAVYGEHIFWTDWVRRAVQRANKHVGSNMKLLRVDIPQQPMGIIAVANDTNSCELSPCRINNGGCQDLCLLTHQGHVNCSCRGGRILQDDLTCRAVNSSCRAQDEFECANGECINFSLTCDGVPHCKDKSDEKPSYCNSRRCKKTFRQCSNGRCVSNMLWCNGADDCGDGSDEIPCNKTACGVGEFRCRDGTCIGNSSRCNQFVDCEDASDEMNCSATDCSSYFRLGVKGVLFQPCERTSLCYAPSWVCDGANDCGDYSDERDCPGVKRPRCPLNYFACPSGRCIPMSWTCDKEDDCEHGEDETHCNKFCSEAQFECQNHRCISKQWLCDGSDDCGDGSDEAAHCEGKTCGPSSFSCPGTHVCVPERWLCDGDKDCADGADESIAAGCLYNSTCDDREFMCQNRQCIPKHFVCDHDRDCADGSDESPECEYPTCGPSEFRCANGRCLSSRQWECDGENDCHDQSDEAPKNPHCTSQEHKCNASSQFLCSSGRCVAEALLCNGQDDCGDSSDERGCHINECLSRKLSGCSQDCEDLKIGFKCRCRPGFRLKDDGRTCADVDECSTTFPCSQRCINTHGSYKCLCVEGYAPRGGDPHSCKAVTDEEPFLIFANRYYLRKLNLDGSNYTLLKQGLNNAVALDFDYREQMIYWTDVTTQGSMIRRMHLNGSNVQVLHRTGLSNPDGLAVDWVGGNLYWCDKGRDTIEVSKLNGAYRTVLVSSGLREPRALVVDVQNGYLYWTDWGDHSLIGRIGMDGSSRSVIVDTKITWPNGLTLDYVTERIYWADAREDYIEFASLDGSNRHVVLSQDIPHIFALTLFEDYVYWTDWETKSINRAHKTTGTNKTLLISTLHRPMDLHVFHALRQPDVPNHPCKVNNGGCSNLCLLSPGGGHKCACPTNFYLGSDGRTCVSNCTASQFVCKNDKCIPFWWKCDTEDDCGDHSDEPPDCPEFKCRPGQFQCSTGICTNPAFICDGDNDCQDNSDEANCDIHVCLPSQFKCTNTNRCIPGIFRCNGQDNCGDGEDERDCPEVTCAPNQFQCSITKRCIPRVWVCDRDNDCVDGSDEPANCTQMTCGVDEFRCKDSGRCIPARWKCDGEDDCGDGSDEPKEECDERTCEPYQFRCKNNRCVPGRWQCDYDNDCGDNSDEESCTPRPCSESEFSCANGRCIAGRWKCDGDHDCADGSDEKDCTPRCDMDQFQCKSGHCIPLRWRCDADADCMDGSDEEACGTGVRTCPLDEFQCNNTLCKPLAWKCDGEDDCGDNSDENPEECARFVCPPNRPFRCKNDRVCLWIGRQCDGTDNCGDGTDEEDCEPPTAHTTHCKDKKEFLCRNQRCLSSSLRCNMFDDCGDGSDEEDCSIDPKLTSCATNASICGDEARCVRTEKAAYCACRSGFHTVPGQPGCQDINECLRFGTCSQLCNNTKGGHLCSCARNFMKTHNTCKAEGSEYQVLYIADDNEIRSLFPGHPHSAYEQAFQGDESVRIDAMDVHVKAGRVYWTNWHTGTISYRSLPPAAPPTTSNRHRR
Chain of LRP (Q07954 3944-4544 partner limits assumed): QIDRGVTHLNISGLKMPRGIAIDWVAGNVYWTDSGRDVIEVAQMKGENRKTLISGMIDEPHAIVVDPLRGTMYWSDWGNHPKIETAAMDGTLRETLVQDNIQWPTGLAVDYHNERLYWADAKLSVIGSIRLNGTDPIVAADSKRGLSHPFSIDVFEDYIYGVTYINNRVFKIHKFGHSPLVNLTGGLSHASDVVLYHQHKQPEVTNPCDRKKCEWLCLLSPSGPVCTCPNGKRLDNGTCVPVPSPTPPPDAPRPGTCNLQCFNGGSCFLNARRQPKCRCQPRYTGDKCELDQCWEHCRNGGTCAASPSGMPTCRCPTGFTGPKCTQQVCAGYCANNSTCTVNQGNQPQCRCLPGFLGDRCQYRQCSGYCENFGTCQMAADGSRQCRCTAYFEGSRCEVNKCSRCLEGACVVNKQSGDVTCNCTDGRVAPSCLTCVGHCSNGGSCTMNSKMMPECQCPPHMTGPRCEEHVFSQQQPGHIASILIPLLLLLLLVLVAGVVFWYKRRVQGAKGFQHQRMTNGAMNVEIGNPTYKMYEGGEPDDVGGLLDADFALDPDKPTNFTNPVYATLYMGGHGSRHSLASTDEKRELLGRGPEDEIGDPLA

For “RAP: 39 kDa receptor associated protein that binds members of the LDL receptor family and blocks their ligand binding capacity”, in the assay with LRP, the “inhibition of APP binding to LRP” value was “inhibition of APP binding”. The “inhibition of 125I-APPs770 degradation by apoE isoforms/βVLDL or RAP” value in assay [1] (18 h at 37° C., 125I-APP/PN-2 8.8 nM, 10 μg/ml apoE/βVLDL or RAP 1 μM, F(4,15)=21.65, p=0.0001, p<0.05 vs βVLDL alone, RAP p<0.001) was “statistically significant”. Also, the “inhibition of catabolism/degradation of APP (125I-APPs770) by added competitor” value in assay [1] (LRP-containing fibroblasts, RAP 1 μM, anti-LRP IgG 100 μg/ml) is listed as “inhibition of catabolism of APP; also recorded: inhibition of degradation”.

For the molecule heparin, the “inhibition of internalization of APP (125I-APPs770)” value in assay [1] (LRP-containing fibroblasts, 125I-APPs770 1 nM, heparin 100 μg/ml) was “inhibition of internalization of APP”; in assay [2] (125I-APPs770 1 nM, heparin 100 μg/ml), “inhibition of internalization of APP”.

B1: α2-macroglobulin: 125I-labeled α2-macroglobulin, LRP ligand control (protein, UniProt P01023 24-1474, looked up)
Alpha-2-macroglobulin: SVSGKPQYMVLVPSLLHTETTEKGCVLLSYLNETVTVSASLESVRGNRSLFTDLEAENDVLHCVAFAVPKSSSNEEVMFLTVQVKGPTQEFKKRTTVMVKNEDSLVFVQTDKSIYKPGQTVKFRVVSMDENFHPLNELIPLVYIQDPKGNRIAQWQSFQLEGGLKQFSFPLSSEPFQGSYKVVVQKKSGGRTEHPFTVEEFVLPKFEVQVTVPKIITILEEEMNVSVCGLYTYGKPVPGHVTVSICRKYSDASDCHGEDSQAFCEKFSGQLNSHGCFYQQVKTKVFQLKRKEYEMKLHTEAQIQEEGTVVELTGRQSSEITRTITKLSFVKVDSHFRQGIPFFGQVRLVDGKGVPIPNKVIFIRGNEANYYSNATTDEHGLVQFSINTTNVMGTSLTVRVNYKDRSPCYGYQWVSEEHEEAHHTAYLVFSPSKSFVHLEPMSHELPCGHTQTVQAHYILNGGTLLGLKKLSFYYLIMAKGGIVRTGTHGLLVKQEDMKGHFSISIPVKSDIAPVARLLIYAVLPTGDVIGDSAKYDVENCLANKVDLSFSPSQSLPASHAHLRVTAAPQSVCALRAVDQSVLLMKPDAELSASSVYNLLPEKDLTGFPGPLNDQDNEDCINRHNVYINGITYTPVSSTNEKDMYSFLEDMGLKAFTNSKIRKPKMCPQLQQYEMHGPEGLRVGFYESDVMGRGHARLVHVEEPHTETVRKYFPETWIWDLVVVNSAGVAEVGVTVPDTITEWKAGAFCLSEDAGLGISSTASLRAFQPFFVELTMPYSVIRGEAFTLKATVLNYLPKCIRVSVQLEASPAFLAVPVEKEQAPHCICANGRQTVSWAVTPKSLGNVNFTVSAEALESQELCGTEVPSVPEHGRKDTVIKPLLVEPEGLEKETTFNSLLCPSGGEVSEELSLKLPPNVVEESARASVSVLGDILGSAMQNTQNLLQMPYGCGEQNMVLFAPNIYVLDYLNETQQLTPEIKSKAIGYLNTGYQRQLNYKHYDGSYSTFGERYGRNQGNTWLTAFVLKTFAQARAYIFIDEAHITQALIWLSQRQKDNGCFRSSGSLLNNAIKGGVEDEVTLSAYITIALLEIPLTVTHPVVRNALFCLESAWKTAQEGDHGSHVYTKALLAYAFALAGNQDKRKEVLKSLNEEAVKKDNSVHWERPQKPKAPVGHFYEPQAPSAEVEMTSYVLLAYLTAQPAPTSEDLTSATNIVKWITKQQNAQGGFSSTQDTVVALHALSKYGAATFTRTGKAAQVTIQSSGTFSSKFQVDNNNRLLLQQVSLPELPGEYSMKVTGEGCVYLQTSLKYNILPEKEEFPFALGVQTLPQTCDEPKAHTSFQISLSVSYTGSRSASNMAIVDVKMVSGFIPLKPTVKMLERSNHVSRTEVSSNHVLIYLDKVSNQTLSLFFTVLQDVPVRDLKPAIVKVYDYYETDEFAIAEYNAPCSKDLGNA
modifications: 125I label
notes: 125I-labeled α2-macroglobulin, LRP ligand control
For B1, the “catabolism (internalization and degradation) of 125I-labeled ligand by cells” value in assay [1] (LRP-containing fibroblasts, 37° C., no competitor) was “internalization and degradation”; in assay [2] (37° C., no competitor), “lack of both internalization and degradation”.

These data come from patent US6447775B1, “Modulators of expression and function of LRP in Alzheimer's disease” (The General Hospital Corporation, priority 1995, dated 2002).
